Data on 26 molecules can be found in US9340555B2, “Compounds as tyrosine kinase modulators” (Allergan, Inc., priority 2009, dated 2016).

The term IC50 denotes the concentration that gives 50% inhibition.

Test [1] addresses human VEGF receptor (VEGFR-2) (Homo sapiens (Human), UniProt P35968). Nature of the test: VEGFR2 Kinase Assay (Enzymic VEGFR2). It counts as biochemical. The settings on record: His-VEGFR-2 cytoplasmic domain, 3.6 µM ATP. On the procedure:
VEGFR2 Kinase Assay The cytoplasmic domain of the human VEGF receptor (VEGFR-2) was expressed as a Histidine-tagged fusion protein following infection of insect cells using an His engineered baculovirus. […] Kinase assays were performed in 96 well microtiter plates that were coated overnight with 30 µg of poly-Glu-[…]:1) in 10 mM Phosphate Buffered Saline (PBS), pH 7.2-7.4. The plates were incubated with 1% BSA and then washed four times with PBS prior to starting the reaction. […] Reactions were initiated by the addition 0.5 ng of purified protein. Following a ten minute incubation at 25° C., the reactions were washed four times with PBS containing 0.05% Tween-20. 100 µl of a monoclonal anti-phosphotyrosine antibody-peroxidase conjugate was diluted 1:10000 in PBS-Tween-20 and added to the wells for 30 minutes. Following four washes with PBS-Tween-20, 100 µl of 0-phenylenediamine Dihydrochloride in Phosphate-citrate buffer, containing urea hydrogen peroxide, was added to the wells for 7 minutes as a colorimetric substrate for the peroxidase. […] IC50 values for compound inhibition were calculated directly from graphs of optical density (arbitrary units) versus compound concentration following subtraction of blank values.

The target of test [2] is VEGFR2 (Homo sapiens (Human), UniProt P35968). In words: VEGF Stimulated Ca++ Signal In Vitro (Cellular VEGFR2, FLIPR). Format: cell-based. As to conditions: HUVEC, VEGF stimulation (5 ng/mL), intracellular calcium.
Test [3] has as its target PDGFRβ (Homo sapiens (Human), UniProt P09619). Nature of the test: Enzymic PDGFRβ. Format: biochemical.

PDGFRβ, sequence (P09619 33-1106, species assumed): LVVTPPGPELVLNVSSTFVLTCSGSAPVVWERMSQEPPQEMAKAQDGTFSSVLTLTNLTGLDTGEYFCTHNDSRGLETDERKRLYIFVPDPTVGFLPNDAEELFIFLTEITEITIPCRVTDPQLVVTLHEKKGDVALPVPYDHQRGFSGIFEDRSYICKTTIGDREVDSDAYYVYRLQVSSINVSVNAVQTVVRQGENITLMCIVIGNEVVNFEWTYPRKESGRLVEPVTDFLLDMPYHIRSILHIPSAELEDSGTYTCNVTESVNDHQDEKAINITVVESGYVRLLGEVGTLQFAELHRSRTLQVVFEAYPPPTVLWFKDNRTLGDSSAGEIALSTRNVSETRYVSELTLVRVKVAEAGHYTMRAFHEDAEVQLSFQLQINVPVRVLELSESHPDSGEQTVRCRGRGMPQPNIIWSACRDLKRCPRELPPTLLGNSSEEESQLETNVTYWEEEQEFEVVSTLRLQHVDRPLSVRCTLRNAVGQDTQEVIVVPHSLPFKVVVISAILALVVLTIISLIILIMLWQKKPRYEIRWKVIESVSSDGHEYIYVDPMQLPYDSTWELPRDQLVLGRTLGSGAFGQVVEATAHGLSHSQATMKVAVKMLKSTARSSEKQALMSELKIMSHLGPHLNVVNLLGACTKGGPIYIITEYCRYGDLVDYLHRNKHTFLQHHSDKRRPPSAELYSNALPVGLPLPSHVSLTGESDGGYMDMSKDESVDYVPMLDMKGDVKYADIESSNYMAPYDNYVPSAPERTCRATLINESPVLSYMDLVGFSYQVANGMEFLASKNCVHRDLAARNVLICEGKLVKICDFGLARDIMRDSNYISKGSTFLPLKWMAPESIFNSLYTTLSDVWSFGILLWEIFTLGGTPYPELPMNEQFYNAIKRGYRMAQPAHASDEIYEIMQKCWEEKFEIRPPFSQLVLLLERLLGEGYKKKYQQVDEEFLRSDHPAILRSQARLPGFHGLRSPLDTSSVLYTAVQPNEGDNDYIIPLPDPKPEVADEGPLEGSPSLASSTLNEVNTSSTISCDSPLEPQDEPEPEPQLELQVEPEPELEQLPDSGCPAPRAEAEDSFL
VEGFR2, sequence (P35968 20-1356): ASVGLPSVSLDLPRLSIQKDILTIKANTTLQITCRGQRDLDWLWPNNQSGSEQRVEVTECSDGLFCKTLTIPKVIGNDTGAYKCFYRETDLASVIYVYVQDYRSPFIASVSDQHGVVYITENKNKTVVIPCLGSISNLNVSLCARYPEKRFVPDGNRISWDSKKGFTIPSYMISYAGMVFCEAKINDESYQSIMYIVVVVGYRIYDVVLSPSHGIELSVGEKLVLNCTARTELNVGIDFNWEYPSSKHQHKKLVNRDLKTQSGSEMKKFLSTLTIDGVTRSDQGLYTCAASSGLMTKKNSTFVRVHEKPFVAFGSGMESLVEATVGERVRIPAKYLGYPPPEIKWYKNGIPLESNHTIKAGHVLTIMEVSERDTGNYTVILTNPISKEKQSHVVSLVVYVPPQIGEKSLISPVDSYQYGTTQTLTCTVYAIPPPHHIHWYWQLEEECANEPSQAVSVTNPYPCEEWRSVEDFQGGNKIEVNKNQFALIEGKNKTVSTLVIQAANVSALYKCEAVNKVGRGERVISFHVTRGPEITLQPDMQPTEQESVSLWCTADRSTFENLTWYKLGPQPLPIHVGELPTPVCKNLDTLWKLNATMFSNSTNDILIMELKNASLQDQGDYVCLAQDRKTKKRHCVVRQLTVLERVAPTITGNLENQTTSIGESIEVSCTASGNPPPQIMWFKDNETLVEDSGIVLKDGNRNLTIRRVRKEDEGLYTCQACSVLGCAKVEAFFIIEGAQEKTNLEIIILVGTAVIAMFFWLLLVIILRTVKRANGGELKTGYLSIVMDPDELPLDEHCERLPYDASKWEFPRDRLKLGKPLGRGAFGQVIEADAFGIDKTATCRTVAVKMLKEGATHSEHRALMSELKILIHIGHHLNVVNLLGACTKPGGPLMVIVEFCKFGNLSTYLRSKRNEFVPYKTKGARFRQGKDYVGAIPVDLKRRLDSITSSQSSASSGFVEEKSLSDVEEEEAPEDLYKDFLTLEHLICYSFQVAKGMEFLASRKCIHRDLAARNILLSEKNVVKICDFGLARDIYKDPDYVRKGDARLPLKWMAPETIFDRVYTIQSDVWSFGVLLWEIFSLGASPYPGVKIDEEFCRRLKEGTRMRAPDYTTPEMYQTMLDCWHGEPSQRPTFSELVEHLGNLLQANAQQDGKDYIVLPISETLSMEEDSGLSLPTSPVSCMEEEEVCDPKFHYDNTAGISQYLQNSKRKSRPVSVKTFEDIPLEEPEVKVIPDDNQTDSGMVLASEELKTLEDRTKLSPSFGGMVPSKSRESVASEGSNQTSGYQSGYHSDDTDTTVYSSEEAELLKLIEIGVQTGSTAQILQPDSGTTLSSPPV
human VEGF receptor (VEGFR-2), sequence (P35968 786-1356): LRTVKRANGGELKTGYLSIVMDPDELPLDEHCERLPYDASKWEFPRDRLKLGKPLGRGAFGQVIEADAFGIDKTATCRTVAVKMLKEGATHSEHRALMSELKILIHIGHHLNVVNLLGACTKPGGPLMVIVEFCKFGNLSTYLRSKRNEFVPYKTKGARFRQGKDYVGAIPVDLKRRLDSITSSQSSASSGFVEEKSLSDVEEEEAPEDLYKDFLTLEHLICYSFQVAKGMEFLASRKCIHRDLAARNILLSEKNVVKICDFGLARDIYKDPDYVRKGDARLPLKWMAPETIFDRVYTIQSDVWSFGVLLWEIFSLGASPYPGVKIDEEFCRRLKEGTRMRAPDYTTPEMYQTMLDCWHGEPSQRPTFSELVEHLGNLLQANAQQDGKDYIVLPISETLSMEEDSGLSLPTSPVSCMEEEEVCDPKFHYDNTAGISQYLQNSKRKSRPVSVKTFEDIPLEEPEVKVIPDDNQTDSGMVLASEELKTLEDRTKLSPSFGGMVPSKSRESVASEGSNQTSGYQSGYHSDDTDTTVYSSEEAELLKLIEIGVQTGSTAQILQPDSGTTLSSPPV

On to `COC(=O)[C@@H]1C[C@@H](O)CN1CCCNC(=O)c1cc2nccc(Oc3ccc(NC(=O)Nc4cc(C)ccc4F)cc3)c2s1` (relative stereo) [Example 17, methyl rel-(2R,4S)-1-{3-[({7-[4-({[(2-fluoro-5-methylphenyl)amino]carbonyl}amino)phenoxy]thieno[3,2-b]pyridin-2-yl}carbonyl)amino]propyl}-4-hydroxypyrrolidine-2-carboxylate], for which, in test [1], half-maximal inhibition (IC50) required 4 nM.
On to `COC(=O)c1cc2nccc(Oc3ccc(NC(=O)Nc4cc(C)ccc4F)cc3)c2s1` [Compound F1, Methyl 7-[4-({[(2-fluoro-5-methylphenyl)amino]carbonyl}amino)phenoxy]thieno[3,2-b]pyridine-2-carboxylate], for which the IC50 in test [2] amounted to 2 nM; in test [1], 18 nM.
Regarding `COC(=O)c1cc2nccc(Oc3cccc(NC(=O)Nc4cc(C)ccc4F)c3)c2s1` [Compound F3, Methyl 7-[3-({[(2-fluoro-5-methylphenyl)amino]carbonyl}amino)phenoxy]thieno[3,2-b]pyridine-2-carboxylate], the results for the IC50 in test [2] and in test [1] were 35 nM and 21 nM, respectively.
The corresponding values for `COC(=O)c1cc2nccc(-c3ccc(NC(=O)Nc4cc(C)ccc4F)cc3)c2s1` [Compound F4, Methyl 7-[4-({[(2-fluoro-5-methylphenyl)amino]carbonyl}amino)phenyl]thieno[3,2-b]pyridine-2-carboxylate] are 10000 nM and 10000 nM.
Turning to `Cc1ccc(F)c(NC(=O)Nc2ccc(-c3ccnc4cc(C(=O)O)sc34)cc2)c1` [Compound F5, 7-[4-({[(2-fluoro-5-methylphenyl)amino]carbonyl}amino)phenyl]thieno[3,2-b]pyridine-2-carboxylic acid], the IC50 in test [2] and in test [1] was 10000 nM throughout.
Consider `Cc1ccc(F)c(NC(=O)Nc2ccc(Oc3ccnc4cc(C(=O)NCCC(=O)O)sc34)cc2)c1` [Compound F6, 3-[({7-[4-({[(2-fluoro-5-methylphenyl)amino]carbonyl}amino)phenoxy]thieno[3,2-b]pyridin-2-yl}carbonyl)amino]propanoic acid], for which, in test [1], the IC50 turned out to be 11 nM.
Still for that read-out and setting: the same measure for `Cc1ccc(F)c(NC(=O)Nc2ccc(Oc3ccnc4cc(C(=O)NCCC(=O)O)sc34)cc2F)c1` [Compound F7, 3-[({7-[3-fluoro-4-({[(2-fluoro-5-methylphenyl)amino]carbonyl}amino)phenoxy]thieno[3,2-b]pyridin-2-yl}carbonyl)amino]propanoic acid]: 10 nM.
Still for that read-out and setting: the value for `Cc1ccc(F)c(NC(=O)Nc2ccc(Oc3ccnc4cc(C(=O)O)sc34)cc2F)c1` [Compound F8, 7-[3-fluoro-4-({[(2-fluoro-5-methylphenyl)amino]carbonyl}amino)phenoxy]thieno[3,2-b]pyridine-2-carboxylic acid] was 11 nM.
For `COC(=O)C1CCCN1CCCNC(=O)c1cc2nccc(Oc3ccc(NC(=O)Nc4cc(C)ccc4F)c(F)c3)c2s1` (centres unmarked) [Example 42, methyl 1-{3-[({7-[3-fluoro-4-({[(2-fluoro-5-methylphenyl)amino]carbonyl}amino)phenoxy]thieno[3,2-b]pyridin-2-yl}carbonyl)amino]propyl}pyrrolidine-2-carboxylate], the results for the concentration for half-maximal inhibition (IC50) in test [2] and in test [1] were 4 nM and 6 nM, respectively.
In the case of `Cc1ccc(F)c(NC(=O)Nc2ccc(Oc3ccnc4cc(C(=O)NCCCN5CCCC5)sc34)cc2F)c1` [Example 43, 7-[3-fluoro-4-({[(2-fluoro-5-methylphenyl)amino]carbonyl}amino)phenoxy]-N-(3-pyrrolidin-1-ylpropyl)thieno[3,2-b]pyridine-2-carboxamide], the IC50 in test [2] turned out to be 6 nM; in test [1], 3 nM.
The corresponding values for `Cc1ccc(F)c(NC(=O)Nc2ccc(Oc3ccnc4cc(C(=O)NCCCNC(=O)OC(C)(C)C)sc34)cc2F)c1` [Example 44, tert-butyl {3-[({7-[3-fluoro-4-({[(2-fluoro-5-methylphenyl)amino]carbonyl}amino)phenoxy]thieno[3,2-b]pyridin-2-yl}carbonyl)amino]propyl}carbamate] are 16 nM and 11 nM.
As to `Cc1ccc(F)c(NC(=O)Nc2ccc(Oc3ccnc4cc(C(=O)NCCCN)sc34)cc2F)c1` [Example 45, N-(3-aminopropyl)-7-[3-fluoro-4-({[(2-fluoro-5-methylphenyl)amino]carbonyl}amino)phenoxy]thieno[3,2-b]pyridine-2-carboxamide], the IC50 in test [2] is 10 nM; in test [1], 7 nM.
The molecule `Cc1ccc(F)c(NC(=O)Nc2ccc(Oc3ccnc4cc(C(=O)N[C@@H](CCC(=O)OC(C)(C)C)C(=O)O)sc34)cc2F)c1` [Example 48, (2S)-5-tert-butoxy-2-[({7-[3-fluoro-4-({[(2-fluoro-5-methylphenyl)amino]carbonyl}amino)phenoxy]thieno[3,2-b]pyridin-2-yl}carbonyl)amino]-5-oxopentanoic acid] had an IC50 in test [1] of 7 nM.
Same read-out and setting: the same measure for `Cc1ccc(F)c(NC(=O)Nc2ccc(Oc3ccnc4cc(C(=O)NCCCO)sc34)cc2F)c1` [Example 53, 7-[3-fluoro-4-({[(2-fluoro-5-methylphenyl)amino]carbonyl}amino)phenoxy]-N-(3-hydroxypropyl)thieno[3,2-b]pyridine-2-carboxamide]: 12 nM; for `Cc1ccc(F)c(NC(=O)Nc2ccc(Oc3ccnc4cc(C(=O)N=S(C)(C)=O)sc34)cc2F)c1` [Example 58, N-[dimethyl(oxido)-lambda˜4˜-sulfanylidene]-7-[3-fluoro-4-({[(2-fluoro-5-methylphenyl)amino]carbonyl}amino)phenoxy]thieno[3,2-b]pyridine-2-carboxamide]: 3 nM.
The same measure, in the same setting: the value for `Cc1ccc(F)c(NC(=O)Nc2ccc(Oc3ccnc4cc(C(=O)N=S(C)(C)=O)sc34)cc2)c1` [Example 61, N-[dimethyl(oxido)-lambda˜4˜-sulfanylidene]-7-[4-({[(2-fluoro-5-methylphenyl)amino]carbonyl}amino)phenoxy]thieno[3,2-b]pyridine-2-carboxamide] was 2 nM.
With `COC(=O)c1cc2nccc(Oc3cccc(NC(=O)c4occc4C)c3)c2s1` [Example 71, Methyl 7-{3-[(3-methyl-2-furoyl)amino]phenoxy}thieno[3,2-b]pyridine-2-carboxylate], the IC50 in test [1] came to 24 nM; in test [3], 169 nM.
For the molecule `CCNC(=O)c1cc2nccc(Oc3cccc(NC(=O)c4occc4C)c3)c2s1` [Example 73, N-ethyl-7-{3-[(3-methyl-2-furoyl)amino]phenoxy}thieno[3,2-b]pyridine-2-carboxamide], the IC50 in test [1] amounted to 9 nM; in test [3], 191 nM.
The corresponding values for `CCN(CC)C(=O)c1cc2nccc(Oc3cccc(NC(=O)c4occc4C)c3)c2s1` [Example 74, N,N-diethyl-7-{3-[(3-methyl-2-furoyl)amino]phenoxy}thieno[3,2-b]pyridine-2-carboxamide] are 27 nM and 424 nM.
Regarding `Cc1ccoc1C(=O)Nc1cccc(Oc2ccnc3cc(C(=O)NCCCO)sc23)c1` [Example 76, N-(3-hydroxypropyl)-7-{3-[(3-methyl-2-furoyl)amino]phenoxy}thieno[3,2-b]pyridine-2-carboxamide], the concentration for half-maximal inhibition (IC50) in test [1] is 11 nM; in test [3], 146 nM.
The corresponding values for `Cc1ccoc1C(=O)Nc1cccc(Oc2ccnc3cc(C(=O)NCCO)sc23)c1` [Example 77, N-(2-hydroxyethyl)-7-{3-[(3-methyl-2-furoyl)amino]phenoxy}thieno[3,2-b]pyridine-2-carboxamide] are 17 nM and 392 nM.
Turning to `Cc1ccoc1C(=O)Nc1cccc(Oc2ccnc3cc(C(=O)NCCc4nn[nH]n4)sc23)c1` [Example 78, 7-{3-[(3-methyl-2-furoyl)amino]phenoxy}-N-[2-(2H-tetrazol-5-yl)ethyl]thieno[3,2-b]pyridine-2-carboxamide], the IC50 came to 14 nM in test [1] and 323 nM in test [3].
Taken in the same sequence, the figures for `Cc1ccoc1C(=O)Nc1cccc(Oc2ccnc3cc(C(=O)OCCCO)sc23)c1` [Example 79, 3-hydroxypropyl 7-{3-[(3-methyl-2-furoyl)amino]phenoxy}thieno[3,2-b]pyridine-2-carboxylate] were 9 nM and 146 nM.
Taken in the same sequence, the figures for `Cc1ccoc1C(=O)Nc1cccc(Oc2ccnc3cc(C(=O)OCCO)sc23)c1` [Example 80, 2-hydroxyethyl 7-{3-[(3-methyl-2-furoyl)amino]phenoxy}thieno[3,2-b]pyridine-2-carboxylate] were 17 nM and 212 nM.
`COCCOC(=O)c1cc2nccc(Oc3cccc(NC(=O)c4occc4C)c3)c2s1` [Example 81, 2-methoxyethyl 7-{3-[(3-methyl-2-furoyl)amino]phenoxy}thieno[3,2-b]pyridine-2-carboxylate]: the IC50 in test [1] is 19 nM; in test [3], 273 nM.
As to `COC(=O)CNCCCNC(=O)c1cc2nccc(Oc3cccc(NC(=O)c4occc4C)c3)c2s1` [Example 82, Methyl [(3-{[(7-{3-[(3-methyl-2-furoyl)amino]phenoxy}thieno[3,2-b]pyridin-2-yl)carbonyl]amino}propyl)amino]acetate], the IC50 in test [1] is 11 nM; in test [3] it was 238 nM.
